Measured values reported in paper PMC8523698, “Preclinical characterization of an intravenous coronavirus 3CL protease inhibitor for the potential treatment of COVID19” (Nature Communications, 2021).
Where “and” joins values, the source holds several entries; their conditions need not be identical. Equal values may be shown once. Read-outs that look alike come from different tables or passages of the source.

Columns and labels:
[1] = Monkey pharmacokinetic study; settings: for AUC(0-inf): AUCinf; for Vd: Vdss; for AUC(0-t): po, AUCt; for Total Concn: monkey plasma; for Total Concn in plasma: 1mg/kg IV PF-00835231 dosed (crossover), individual animals and mean
OAT1 = biological target: T1, OAT1 (Homo sapiens, UniProt Q4U2R8); test: Transporter inhibition using transfected HEK293 cells
T1 sequence (Q4U2R8 1-563): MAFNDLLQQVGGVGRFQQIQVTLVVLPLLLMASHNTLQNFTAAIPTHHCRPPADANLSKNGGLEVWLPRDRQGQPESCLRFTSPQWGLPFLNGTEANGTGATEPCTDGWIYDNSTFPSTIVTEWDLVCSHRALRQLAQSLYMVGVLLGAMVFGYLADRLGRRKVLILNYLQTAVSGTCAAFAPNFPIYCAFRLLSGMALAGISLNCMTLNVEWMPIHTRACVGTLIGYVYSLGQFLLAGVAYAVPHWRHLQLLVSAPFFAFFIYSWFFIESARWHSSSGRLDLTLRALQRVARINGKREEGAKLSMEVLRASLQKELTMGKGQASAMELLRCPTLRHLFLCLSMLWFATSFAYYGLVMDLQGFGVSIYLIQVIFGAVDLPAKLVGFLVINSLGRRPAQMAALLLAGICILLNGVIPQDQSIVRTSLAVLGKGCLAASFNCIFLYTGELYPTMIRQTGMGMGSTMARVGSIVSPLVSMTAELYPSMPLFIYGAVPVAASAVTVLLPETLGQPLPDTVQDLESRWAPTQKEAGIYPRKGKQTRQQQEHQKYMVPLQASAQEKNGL

[2] = Plasma protein binding by equilibrium dialysis; settings: for fraction unbound at 6 h, 5 uM / fraction unbound at 6 h: rat, plasma
[3] = test system: SARS-CoV-2 Washington strain 1 (USA_WA1/2020); type: cell-based
[4] = male, Cynomolgus, cynomolgus monkey, plasma, iv, 1 mg/kg, Mean, monkey, PF-00835231 active dosed 1mg/kg intravenous (crossover)
[5] = male, Cynomolgus, cynomolgus monkey, plasma, iv, 1 mg/kg, monkey, PF-00835231 active dosed 1mg/kg intravenous (crossover), individual monkeys
[6] = monkey, PF-00835231 active dosed 1mg/kg intravenous (crossover), individual monkeys, 1 mg/kg

SMILES: COc1cccc2[nH]c(C(=O)N[C@@H](CC(C)C)C(=O)N[C@@H](C[C@@H]3CCNC3=O)C(=O)CO)cc12 [PF-00835231]
- Vdss ([1]; Monkey, 1mg/kg intravenous, individual animals, 1 mg/kg): 1.51 L/kg
- AUC(0-inf) [1, 4]: 583 ng·h/mL
- AUC(0-inf) [1, 5]: 614 ng·h/mL
- clearance ([1]; male, Cynomolgus, cynomolgus monkey, plasma, iv, 1 mg/kg, Clearance, Mean, monkey, PF-00835231 active dosed 1mg/kg intravenous (crossover)): 28.7 mL/min/kg
- clearance ([1]; male, Cynomolgus, cynomolgus monkey, plasma, iv, 1 mg/kg, Clearance, monkey, PF-00835231 active dosed 1mg/kg intravenous (crossover), individual monkeys): 27.1 mL/min/kg
- half-life ([1]; male, Cynomolgus, cynomolgus monkey, plasma, iv, 1 mg/kg, Half life, Mean, monkey, PF-00835231 active dosed 1mg/kg intravenous (crossover)): 0.92 h
- half-life ([1]; male, Cynomolgus, cynomolgus monkey, plasma, iv, 1 mg/kg, Half life, monkey, PF-00835231 active dosed 1mg/kg intravenous (crossover), individual monkeys): 1.14 h
- Vd [1, 4]: 1.43 L/kg
- Vd [1, 5]: 1.34 L/kg
- half-life ([1]; male, cynomolgus monkey, plasma, iv, 1 mg/kg, Terminal T1/2, monkey IV (n=2, range), PF-07304814 […], PF-00835231 1.0mg/kg): < 2 h
- Vd ([1]; male, cynomolgus monkey, plasma, iv, 1 mg/kg, Mean, Monkey, 1mg/kg intravenous): 1.43 L/kg
- Vd ([1]; male, cynomolgus monkey, plasma, iv, 1 mg/kg, Monkey, 1mg/kg intravenous, individual animals): 1.34 L/kg
- Vd ([1]; male, cynomolgus monkey, plasma, iv, 1 mg/kg, Monkey, Vdss input): 1.4 L/kg
- Vd ([1]; male, cynomolgus monkey, plasma, iv, 1 mg/kg, monkey IV (n=2, range), PF-07304814 […], PF-00835231 1.0mg/kg): < 1.5 L/kg
- clearance ([1]; male, cynomolgus monkey, plasma, iv, Cl, monkey IV (n=2, range), PF-07304814 […], PF-00835231 1.0mg/kg): 28.7 mL/min/kg
- half-life ([1]; male, cynomolgus monkey, plasma, iv, Terminal T1/2, monkey IV (n=2, range), PF-07304814 […], PF-00835231 1.0mg/kg): 1.2 h
- Vd ([1]; male, cynomolgus monkey, plasma, iv, monkey IV (n=2, range), PF-07304814 […], PF-00835231 1.0mg/kg): 1.4 L/kg
- AUC(0-t) ([1]; male, cynomolgus monkey, plasma, 5 mg/kg, Mean, monkey, PF-00835231 5mg/kg PO dose): 0.466 ng·h/mL
- AUC(0-t) ([1]; male, cynomolgus monkey, plasma, 5 mg/kg, monkey, PF-00835231 5mg/kg PO dose, individual monkeys): 0.328 ng·h/mL
- Total Concn ([1]; PF-00835231 active dosed 1mg/kg intravenous (crossover), time 0.5 h, individual monkeys, 1 mg/kg): 212 ng/mL
- Total Concn ([1]; PF-00835231 active dosed 1mg/kg intravenous (crossover), time 1 h, individual monkeys, 1 mg/kg): 124 ng/mL
- Total Concn ([1]; PF-00835231 active dosed 1mg/kg intravenous (crossover), time 2 h, individual monkeys, 1 mg/kg): 47 ng/mL
- Total Concn ([1]; PF-00835231 active dosed 1mg/kg intravenous (crossover), time 4 h, individual monkeys, 1 mg/kg): 14 ng/mL
- Total Concn ([1]; PF-00835231 active dosed 1mg/kg intravenous (crossover), time 7 h, individual monkeys, 1 mg/kg): 2.25 ng/mL
- Urine Concn ([1]; monkey urine 0-7h, PF-00835231 active dosed 1mg/kg intravenous (crossover), individual monkeys, 1 mg/kg): 260 ng/mL and 304 ng/mL
- Urine Concn ([1]; monkey urine 7-24h, PF-00835231 active dosed 1mg/kg intravenous (crossover), individual monkeys, 1 mg/kg): 6.76 ng/mL and 33.1 ng/mL
- Total Concn in plasma ([1]; monkey, Time 0.083, 1 mg/kg): 1220 ng/mL and 1225 ng/mL
- Total Concn in plasma ([1]; monkey, Time 0.25, 1 mg/kg): 442 ng/mL and 365 ng/mL
- Total Concn in plasma ([1]; monkey, Time 0.5, 1 mg/kg): 212 ng/mL and 183 ng/mL
- Total Concn in plasma ([1]; monkey, Time 1, 1 mg/kg): 124 ng/mL and 107 ng/mL
- Total Concn in plasma ([1]; monkey, Time 2, 1 mg/kg): 47 ng/mL and 46 ng/mL
- Total Concn in plasma ([1]; monkey, Time 4, 1 mg/kg): 14 ng/mL and 13 ng/mL
- Total Concn in plasma ([1]; monkey, Time 7, 1 mg/kg): 2.87 ng/mL and 2.25 ng/mL and 2.6 ng/mL
- AUCt ([1]; monkey, PF-00835231 5mg/kg PO dose, individual monkeys, 5 mg/kg): 0.603 ng·h/mL
- AUCinf [1, 6]: 552 ng·h/mL
- Half life [1, 6]: 1.27 h
- Vdss [1, 6]: 1.51 L/kg
- clearance [1, 6]: 30.2 mL/min/kg
- Oral F% ([1]; monkey, 5mg/kg PO vs 1.0mg/kg IV): < 0.1% and < 2%
- IC50 (OAT1): > 300 µM
- IC50 (OAT1; human, HEK293 cells transfected with OAT1, pH 7.4, probe [3H] para-aminohippuric acid (0.5 µM)): > 20 µM
- Individual fraction unbound ([2]; Rat Wistar han plasma, 5.0 uM, replicates Day 1-3): 0.368 and 0.323 and 0.339 and 0.35 and 0.268 and 0.363 and 0.364 and 0.263 and 0.326 and 0.358 and 0.285
- fraction unbound at 6 h, 5 uM ([2]; Wistar Han, pH 7.4, Fraction unbound, Geomean, Rat plasma, 5.0 uM, n 12): 0.327
- fraction unbound at 6 h, 5 uM ([2]; Wistar Han, pH 7.4, Individual fraction unbound, Rat Wistar han plasma, 5.0 uM, replicates Day 1-3): 0.343
- fraction unbound at 6 h ([2]; Wistar Hannover, pH 7.4, Plasma fu, Vdss input): 0.327
- fraction unbound at 6 h ([2]; Wistar Hannover, pH 7.4, Unbound fraction fu (%CV), rat plasma (PF-07304814 Sprague-Dawley, PF-00835231 Wistar Hannover)): 0.327
- fraction unbound at 6 h, 5 uM ([2]; Wistar Hannover, pH 7.4, fraction unbound Geomean, rat plasma, 5.0 uM, n=12): 0.327
- hill coefficient (m) [3]: 3
